Experimental data published in ChEMBL document CHEMBL4765314, “Rational design and biological evaluation of gemfibrozil modified Xenopus GLP-1 derivatives as long-acting hypoglycemic agents” (Eur J Med Chem, 2020).
The source made the active and inactive calls. The calls are words filed in the database; no cut-off is given here. Starred links: 1 amine or outer side, 2 acyl side, 3 side chain; linkers in the order of their positions; H or OH if unused. Residues, ends and D or L forms follow the SMILES beside them. Groups on a side chain read outwards from the residue. *: point of attachment. X1 = Cc1ccc(C)c(OCCCC(C)(C)C(=O)OCC(=O)NCCCCCCCCCC(NC(=O)COC(=O)C(C)(C)CCCOc2cc(C)ccc2C)C(=O)*)c1; γGlu = O=C(O)[C@H](CCC(=O)[*:2])N[*:1]

How the values were obtained:
[1] = biological target: Glucagon-like peptide 1 receptor (Homo sapiens, UniProt P43220); test: Agonist activity at human GLP-1R expressed in HEK293 cells assessed as stimulation of cAMP accumulation incubated for 60 mins by HTRF assay; format: functional, cell-based
Chain of Glucagon-like peptide 1 receptor (P43220 whole entry): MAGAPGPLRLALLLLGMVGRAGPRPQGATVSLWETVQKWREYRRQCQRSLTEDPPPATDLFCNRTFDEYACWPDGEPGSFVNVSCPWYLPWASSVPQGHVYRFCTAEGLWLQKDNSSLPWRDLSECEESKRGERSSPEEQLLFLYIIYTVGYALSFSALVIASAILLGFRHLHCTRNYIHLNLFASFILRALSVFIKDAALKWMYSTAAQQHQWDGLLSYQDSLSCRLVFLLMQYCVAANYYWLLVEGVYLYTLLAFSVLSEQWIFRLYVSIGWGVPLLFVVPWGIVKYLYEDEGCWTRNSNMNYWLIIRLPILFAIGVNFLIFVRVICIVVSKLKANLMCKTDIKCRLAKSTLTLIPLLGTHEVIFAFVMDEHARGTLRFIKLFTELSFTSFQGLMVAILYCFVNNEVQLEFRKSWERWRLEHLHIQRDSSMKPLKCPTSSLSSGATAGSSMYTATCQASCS

Mus musculus [2] = test: Hypoglycemic activity in 12 hrs fasted ICR mouse assessed as reduction in blood glucose level at 25 nmol/kg, ip dosed 30 mins before glucose challenge measured up to 120 mins by OGTT method; format: functional, organism-based; settings: time 150.0 min
[3] = Stability in Sprague-Dawley rat plasma assessed as half life at 1000 ng/ml measured up to 48 hrs under shaking condition by LC-MS/MS analysis; format: ADME, cell-free
Albumin = Albumin (Homo sapiens, UniProt P02768); test: Binding affinity to human serum albumin assessed as retention factor by HPAC method; format: ADME
Chain of Albumin (P02768 whole entry): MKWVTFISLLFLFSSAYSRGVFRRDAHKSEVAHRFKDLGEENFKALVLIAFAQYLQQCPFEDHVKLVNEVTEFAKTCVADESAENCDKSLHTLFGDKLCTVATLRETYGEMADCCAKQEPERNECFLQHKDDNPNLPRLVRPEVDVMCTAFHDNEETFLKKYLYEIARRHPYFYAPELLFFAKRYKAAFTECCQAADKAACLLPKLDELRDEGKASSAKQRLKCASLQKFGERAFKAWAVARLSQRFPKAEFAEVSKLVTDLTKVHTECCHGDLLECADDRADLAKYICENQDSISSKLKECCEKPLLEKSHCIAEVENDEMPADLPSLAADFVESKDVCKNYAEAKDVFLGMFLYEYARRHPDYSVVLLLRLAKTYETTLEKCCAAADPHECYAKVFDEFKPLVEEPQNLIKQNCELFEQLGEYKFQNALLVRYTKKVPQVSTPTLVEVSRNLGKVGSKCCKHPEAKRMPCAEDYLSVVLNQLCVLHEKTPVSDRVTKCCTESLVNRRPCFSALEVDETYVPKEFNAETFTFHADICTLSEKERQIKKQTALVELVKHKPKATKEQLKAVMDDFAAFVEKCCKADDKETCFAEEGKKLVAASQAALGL

Mus musculus [4] = test: Hypoglycemic activity in non-fasted db/db mouse assessed as duration of time during which decrease in blood glucose concentration is observed at 25 nmol/kg, sc by OGTT method; format: functional
[5] = Half life in Sprague-Dawley rat at 50 nmol/kg, sc measured up to 24 hrs by LC-MS/MS analysis; format: ADME, organism-based; settings: in vivo
[6] = Tmax in Sprague-Dawley rat at 50 nmol/kg, sc measured up to 24 hrs by LC-MS/MS analysis; format: ADME, organism-based; settings: in vivo
Mus musculus [7] = test: Hypoglycemic activity in db/db mouse assessed as decrease in glucose excursion at 25 nmol/kg, ip dosed 30 mins before glucose challenge and measured up to 180 mins by OGTT method; format: functional, organism-based; settings: time 210.0 min
Mus musculus [8] = test: Hypoglycemic activity in db/db mouse assessed as improvement in glucose tolerance at 25 nmol/kg, ip dosed 30 mins before glucose challenge and measured up to 180 mins by OGTT method; format: functional, organism-based; settings: time 210.0 min
Mus musculus [9] = test: Insulinotropic activity in db/db mouse assessed as improvement in plasma insulin level at 25 nmol/kg, ip dosed 30 mins before glucose challenge and measured up to 60 mins by ELISA; format: functional, organism-based; settings: time 90.0 min
Mus musculus [10] = test: Hypoglycemic activity in non-fasted sc dosed db/db mouse assessed as reduction in blood glucose treated 30 mins before glucose challenge and measured up to 48 hrs by OGTT method; format: functional, organism-based; settings: dose 25-100 nmol/kg, time min <=2910
Mus musculus [11] = test: Anorectic activity in non-fasted sc dosed db/db mouse assessed as reduction in food intake treated 30 mins before glucose challenge and measured up to 48 hrs; format: functional, organism-based; settings: time min <=2910
Mus musculus [12] = test: Hypoglycemic activity in 16 hrs fasted db/db mouse assessed as reduction in blood glucose level at 25 nmol/kg, ip treated 30 mins before glucose challenge and measured at 0 to 12 hrs by multiple OGTT; format: functional, organism-based; settings: time 750.0 min
Mus musculus [13] = test: Gastric emptying in 6 hrs fasted ICR mouse assessed as reduction in blood paracetamol concentration at 25 nmol/kg, ip dosed 30 mins before paracetamol dosing measured up to 60 mins by LC-MS/MS analysis; format: functional, organism-based; settings: time 90.0 min
[14] = Inhibition of solid-phase gastric emptying in 12 hrs fasted ICR mouse assessed reduction in gastric emptying rate at 25 nmol/kg, ip allowed for food intake 1 hrs and measured after 4 hrs […]; format: functional; parameters: scale not given: the % may be the effect or the level left
[15] = Hepatotoxicity in ICR mouse assessed as effect on aspartate aminotransferase level at 1000 nmol/kg, sc administered once daily for 2 weeks; format: toxicity, organism-based; settings: in vivo, 336 h
[16] = Hepatotoxicity in ICR mouse assessed as effect on alanine aminotransferase level at 1000 nmol/kg, sc administered once daily for 2 weeks; format: toxicity, organism-based; settings: in vivo, 336 h
[17] = Renal toxicity in ICR mouse assessed as effect on blood urea nitrogen level at 1000 nmol/kg, sc administered once daily for 2 weeks; format: organism-based; settings: in vivo, 336 h
[18] = Renal toxicity in ICR mouse assessed as effect on serum creatinine level at 1000 nmol/kg, sc administered once daily for 2 weeks; format: organism-based; settings: in vivo, 336 h
Mus musculus [19] = test: Reduction in body weight in C57BL/6 mouse model of diet induced obesity at 25 nmol/kg, sc administered once daily for 21 days relative to control; format: functional; parameters: scale not given: the % may be the effect or the level left; settings: time 21 day
Mus musculus [20] = test: Anorectic activity in C57BL/6 mouse model of diet induced obesity assessed as reduction in food intake at 25 nmol/kg, sc administered once daily for 21 days relative to control; format: functional, organism-based; settings: time 21.0 day
Mus musculus [21] = test: Reduction in body fat content in C57BL/6 mouse model of high-fat diet induced obesity at 25 nmol/kg, sc administered once daily for 21 days relative to control; format: functional; parameters: scale not given: the % may be the effect or the level left; settings: time 21 day
Mus musculus [22] = test: Reduction in serum triglyceride in C57BL/6 mouse model of high-fat diet induced obesity at 25 nmol/kg, sc administered once daily for 21 days; format: functional, organism-based; settings: time 21.0 day
Mus musculus [23] = test: Reduction in serum total cholesterol in C57BL/6 mouse model of high-fat diet induced obesity at 25 nmol/kg, sc administered once daily for 21 days; format: functional, organism-based; settings: time 21.0 day
Mus musculus [24] = test: Increase in serum HDL level in C57BL/6 mouse model of high-fat diet induced obesity at 25 nmol/kg, sc administered once daily for 21 days; format: functional, organism-based; settings: time 21.0 day
Mus musculus [25] = test: Reduction in serum LDL level in C57BL/6 mouse model of high-fat diet induced obesity at 25 nmol/kg, sc administered once daily for 21 days; format: functional, organism-based; settings: time 21.0 day
Mus musculus [26] = test: Effect in normal chow diet fed C57BL/6 mouse assessed as reduction in body weight increase at 25 nmol/kg, sc administered once daily for 21 days (reference value: 10.8%); format: functional; parameters: scale not given: the % may be the effect or the level left; settings: time 21 day
Mus musculus [27] = test: Anorectic effect in normal chow diet fed C57BL/6 mouse assessed as reduction in food intake at 25 nmol/kg, sc administered once daily for 21 days; format: functional, organism-based; settings: time 21.0 day
Mus musculus [28] = test: Inhibition of fat mass gain in normal chow diet fed C57BL/6 mouse at 25 nmol/kg, sc administered once daily for 21 days; format: functional, organism-based; settings: time 21.0 day
Mus musculus [29] = test: Hypoglycemic activity in normal chow diet fed C57BL/6 mouse assessed as fasting blood glucose at 25 nmol/kg, sc administered once daily for 21 days; format: functional, organism-based; settings: time 21.0 day
Mus musculus [30] = test: Improvement in glucose tolerance in standard chow diet fed C57BL/6 mouse at 25 nmol/kg, sc administered once daily for 21 days; format: functional, organism-based; settings: time 21.0 day
Mus musculus [31] = test: Reduction in body weight gain in db/db mouse at 25 nmol/kg, sc administered once daily for 21 days; format: functional, organism-based; settings: time 21.0 day
Mus musculus [32] = test: Improvement in fasted blood glucose level in db/db mouse at 25 nmol/kg, sc administered once daily for 21 days; format: functional, organism-based; settings: time 21.0 day
Mus musculus [33] = test: Improvement in HbA1c level in db/db mouse at 25 nmol/kg, sc administered once daily for 21 days; format: functional, organism-based; settings: time 21.0 day
Mus musculus [34] = test: Improvement in glucose tolerance in db/db mouse at 25 nmol/kg, sc administered once daily for 42 days by OGTT; format: functional, organism-based; settings: time 42.0 day
Mus musculus [35] = test: Reduction in HbA1c level in db/db mouse at 25 nmol/kg, sc administered once daily for 42 days by OGTT; format: functional, organism-based; settings: time 42.0 day
Mus musculus [36] = test: Hypoglycemic activity in non-fasted db/db […] mouse assessed as reduction in blood glucose level at 25 nmol/kg, ip dosed 30 mins before glucose challenge measured up to 120 mins by OGTT method; format: functional, organism-based
Mus musculus [37] = test: Hypoglycemic activity in non-fasted db/db […] mouse assessed as increase in duration of time under normoglycemic state at 25 nmol/kg, sc by OGTT method relative to liraglutide; format: functional, organism-based
Mus musculus [38] = test: Improvement in glucose tolerance in db/db mouse assessed as time for superior hypoglycemic effect by measuring glucose AUC at 25 nmol/kg, sc administered once daily for 42 days by OGTT; format: functional; settings: time 42 day

With `CC[C@H](C)[C@H](NC(=O)[C@H](CC(C)C)NC(=O)[C@H](Cc1c[nH]c2ccccc12)NC(=O)[C@H](CCC(=O)O)NC(=O)[C@@H](NC(=O)[C@H](Cc1ccccc1)NC(=O)[C@H](CCC(=O)O)NC(=O)[C@H](CCCCNC(=O)CC[C@H](NC(=O)C(CCCCCCCCCNC(=O)COC(=O)C(C)(C)CCCOc1cc(C)ccc1C)NC(=O)COC(=O)C(C)(C)CCCOc1cc(C)ccc1C)C(=O)O)NC(=O)[C@H](C)NC(=O)[C@H](C)NC(=O)[C@H](CCC(=O)O)NC(=O)[C@H](CCC(=O)O)NC(=O)[C@H](CCC(=O)O)NC(=O)[C@H](CC(C)C)NC(=O)[C@H](Cc1ccc(O)cc1)NC(=O)[C@H](CCC(=O)O)NC(=O)[C@@H](NC(=O)[C@@H](NC(=O)[C@H](CC(=O)O)NC(=O)[C@H](CC(N)=O)NC(=O)[C@@H](NC(=O)[C@H](Cc1ccc(O)cc1)NC(=O)[C@@H](NC(=O)CNC(=O)[C@H](CCC(=O)O)NC(=O)CNC(=O)[C@@H](N)Cc1cnc[nH]1)[C@@H](C)O)[C@@H](C)O)C(C)C)[C@@H](C)O)[C@@H](C)CC)C(=O)N[C@@H](CCCCN)C(=O)NCC(=O)N[C@@H](CCCCN)C(=O)N1CCC[C@H]1C(=O)N[C@@H](CO)C(=O)N[C@@H](CO)C(=O)NCC(=O)N[C@@H](C)C(=O)N1CCC[C@H]1C(=O)N1CCC[C@H]1C(=O)N1CCC[C@H]1C(=O)N[C@@H](CO)C(=O)O` (some centres undefined) (H-HGEGTYTNDVTEYLEEEAAK([γGlu-X1])EFIEWLIKGKPSSGAPPPS-OH) the EC50 [1] was 0.17 nM, the Activity (Mus musculus [2]) was “Active” and the half-life at 1000 ng/ml [3] was 37.6 h. The K (Albumin) was 13.3, the Time (Mus musculus [4]) was 24 h and the half-life [5] was 7 h. The Tmax [6] was 4 h, the Activity (Mus musculus [7]) was “Active” and the Activity (Mus musculus [8]) was “Active”. For the same molecule, the Activity (Mus musculus [9]) was “Active”, the Activity (Mus musculus [10]) was “Dose-dependent effect” and the Activity (Mus musculus [11]) was “Dose-dependent effect”. For the same molecule, the Activity (Mus musculus [12]) was “Active”, the Activity (Mus musculus [13]) was “Active” and the Activity [14] was 48.3%. The Activity [15] was “Non-Toxic”, the Activity [16] was “Non-Toxic” and the Activity [17] was “Non-Toxic”. For the same molecule, the Activity [18] was “Non-Toxic”, the Activity (Mus musculus [19]) was 15.4% and the Activity (Mus musculus [20]) was “Active”. The Activity (Mus musculus [21]) was 29.8%, the Activity (Mus musculus [22]) was “Active” and the Activity (Mus musculus [23]) was “Active”. The Activity (Mus musculus [24]) was “Active”, the Activity (Mus musculus [25]) was “Active” and the Activity (Mus musculus [26]) was 4.5%. For the same molecule, the Activity (Mus musculus [27]) was “Active”, the Activity (Mus musculus [28]) was “Active” and the Activity (Mus musculus [29]) was “inactive”. For the same molecule, the Activity (Mus musculus [30]) was “inactive”, the Activity (Mus musculus [31]) was “Active” and the Activity (Mus musculus [32]) was “Active”. For the same molecule, the Activity (Mus musculus [33]) was “Active”, the Activity (Mus musculus [34]) was “Active” and the Activity (Mus musculus [35]) was “Active”. The Activity (Mus musculus [36]) was “Active”, the Activity (Mus musculus [37]) was “Active” and the Time (Mus musculus [38]) was 84 days.
